In patent US7084301B2 (Ranbaxy Laboratories Limited, priority 2003, dated 2006):
Like-named read-outs stand apart in the source and are kept apart here.

How the values were obtained:
human α1B-adrenoceptors = molecular target: T1, human α1B-adrenoceptors (Homo sapiens, UniProt P35368); experiment: Radioligand-receptor binding assay, human recombinant α1B-adrenoceptor, [3H]prazosin
T1 sequence (P35368 1-520): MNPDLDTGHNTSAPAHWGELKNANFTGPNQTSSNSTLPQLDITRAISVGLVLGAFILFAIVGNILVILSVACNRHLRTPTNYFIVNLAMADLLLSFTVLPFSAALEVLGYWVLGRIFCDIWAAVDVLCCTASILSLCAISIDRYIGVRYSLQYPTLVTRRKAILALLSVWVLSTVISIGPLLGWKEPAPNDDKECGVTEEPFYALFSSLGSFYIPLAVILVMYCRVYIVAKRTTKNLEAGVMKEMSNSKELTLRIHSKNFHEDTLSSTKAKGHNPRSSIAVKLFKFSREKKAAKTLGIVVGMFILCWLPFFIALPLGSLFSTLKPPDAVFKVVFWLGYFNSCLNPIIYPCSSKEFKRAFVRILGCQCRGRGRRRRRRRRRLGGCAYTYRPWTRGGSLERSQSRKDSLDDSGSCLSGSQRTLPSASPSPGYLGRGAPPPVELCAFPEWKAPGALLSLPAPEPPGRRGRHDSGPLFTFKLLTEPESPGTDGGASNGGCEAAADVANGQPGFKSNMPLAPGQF
Procedure: (§1) Chinese hamster ovary (CHO) cells which had been stably transfected with human α1A, α1B, or α1D-adrenoceptors (Keffel et al., Biochem. Biophys. Res. Commun., 2000, 272, 906–11) were cultured in an atmosphere of 5% CO2/95% air at 37° C. in F-12 HAM medium supplemented with 10% heat-inactivated fetal calf serum, 1 mM glutamine, 100 U/ml penicillin and 0.1 mg/ml streptomycin. Selection pressure was maintained by regular addition of geneticin to the culture medium.
(§2) Competitive radioligand binding to the cloned subtypes of […] was performed using [^3H]prazosin as the radioligand as described by Michel et al, Br. J. Pharmacol., 98, 883–889 (1989) with minor modifications. Experiments were performed in binding buffer consisting of 50 mM Tris, 10 mM MgCl2 and 0.5 mM EDTA at pH 7.5 in a total assay volume of 1000 μl. The protein content typically was 40–60 μg/assay. The mixtures were incubated at 25° C. for 45 minutes. Incubations were terminated by rapid vacuum filtration over GF/C filters followed by two washes of the filters each with 10 ml ice-cold incubation buffer. Non-specific binding was defined as binding in the presence of 10 μM phentolamine.
(§3) The IC50 & Kd were estimated by using the non-linear curve fitting program using G Pad Prism software. The value of inhibition constant Ki was calculated from competitive binding studies by using Cheng & Prusoff equation [Cheng & Prusoff, Biochem. Pharmacol., 22, 3099–3108 (1973)], Ki=IC50/(1+L/Kd), where L is the concentration of [^3H] prazosin used in the particular experiment. Kd of [^3H] prazosin was determined from saturation binding studies. The values were tabulated as mean±SEM of pKi values, where pKi is the −log of Ki value.

human α1D-adrenoceptors = molecular target: T2, human α1D-adrenoceptors (Homo sapiens, UniProt P25100); experiment: Radioligand-receptor binding assay, human recombinant α1D-adrenoceptor, [3H]prazosin
T2 sequence (P25100 1-572): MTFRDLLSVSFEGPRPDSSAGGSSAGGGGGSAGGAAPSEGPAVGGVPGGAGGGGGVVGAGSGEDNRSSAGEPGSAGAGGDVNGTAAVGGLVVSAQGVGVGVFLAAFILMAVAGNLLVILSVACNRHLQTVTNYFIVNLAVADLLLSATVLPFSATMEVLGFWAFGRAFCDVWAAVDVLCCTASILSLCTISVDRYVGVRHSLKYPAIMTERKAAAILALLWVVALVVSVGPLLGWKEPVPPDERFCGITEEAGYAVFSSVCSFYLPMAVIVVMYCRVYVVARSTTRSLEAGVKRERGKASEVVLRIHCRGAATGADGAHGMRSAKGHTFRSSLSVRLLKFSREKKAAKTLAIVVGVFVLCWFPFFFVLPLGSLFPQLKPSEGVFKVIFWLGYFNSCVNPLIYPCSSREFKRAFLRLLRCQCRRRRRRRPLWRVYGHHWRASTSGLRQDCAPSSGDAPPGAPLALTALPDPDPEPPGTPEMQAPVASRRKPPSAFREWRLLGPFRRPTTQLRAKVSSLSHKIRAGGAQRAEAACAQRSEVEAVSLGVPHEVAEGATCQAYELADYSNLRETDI
Procedure: as §1, §2, §3

5-HT1A receptors = molecular target: T3, 5-HT1A receptors (Homo sapiens, UniProt P08908); conditions: reported, J. Med. Chem. 2000; cited from earlier work
T3 sequence (P08908 1-422): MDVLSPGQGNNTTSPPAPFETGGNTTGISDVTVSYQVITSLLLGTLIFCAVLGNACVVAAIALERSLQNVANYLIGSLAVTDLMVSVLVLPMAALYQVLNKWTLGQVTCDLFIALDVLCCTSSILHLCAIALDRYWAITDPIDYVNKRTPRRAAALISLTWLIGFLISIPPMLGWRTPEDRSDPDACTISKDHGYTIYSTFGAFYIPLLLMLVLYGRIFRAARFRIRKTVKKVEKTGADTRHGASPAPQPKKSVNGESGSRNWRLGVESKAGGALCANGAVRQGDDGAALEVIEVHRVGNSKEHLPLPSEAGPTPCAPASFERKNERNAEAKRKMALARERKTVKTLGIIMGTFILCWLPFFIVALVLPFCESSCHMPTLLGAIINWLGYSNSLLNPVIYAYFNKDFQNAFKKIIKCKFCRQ

D-3 receptors = D-3 receptors (Homo sapiens, UniProt P35462); conditions: reported, J. Med. Chem. 2000; cited from earlier work
Sequence of D-3 receptors (P35462 whole entry): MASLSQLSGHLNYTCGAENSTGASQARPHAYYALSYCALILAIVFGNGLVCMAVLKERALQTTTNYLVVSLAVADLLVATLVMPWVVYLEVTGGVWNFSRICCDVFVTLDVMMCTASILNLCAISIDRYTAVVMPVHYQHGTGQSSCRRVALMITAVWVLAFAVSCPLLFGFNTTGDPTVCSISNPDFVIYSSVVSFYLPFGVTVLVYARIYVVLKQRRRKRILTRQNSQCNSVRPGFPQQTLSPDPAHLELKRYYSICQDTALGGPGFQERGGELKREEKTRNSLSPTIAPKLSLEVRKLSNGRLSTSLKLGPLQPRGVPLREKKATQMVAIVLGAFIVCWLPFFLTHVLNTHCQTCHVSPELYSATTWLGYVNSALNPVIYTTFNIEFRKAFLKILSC

human α1A-adrenoceptors = molecular target: T4, human α1A-adrenoceptors (Homo sapiens, UniProt P35348); experiment: Radioligand-receptor binding assay, human recombinant α1A-adrenoceptor, [3H]prazosin
T4 sequence (P35348 1-466): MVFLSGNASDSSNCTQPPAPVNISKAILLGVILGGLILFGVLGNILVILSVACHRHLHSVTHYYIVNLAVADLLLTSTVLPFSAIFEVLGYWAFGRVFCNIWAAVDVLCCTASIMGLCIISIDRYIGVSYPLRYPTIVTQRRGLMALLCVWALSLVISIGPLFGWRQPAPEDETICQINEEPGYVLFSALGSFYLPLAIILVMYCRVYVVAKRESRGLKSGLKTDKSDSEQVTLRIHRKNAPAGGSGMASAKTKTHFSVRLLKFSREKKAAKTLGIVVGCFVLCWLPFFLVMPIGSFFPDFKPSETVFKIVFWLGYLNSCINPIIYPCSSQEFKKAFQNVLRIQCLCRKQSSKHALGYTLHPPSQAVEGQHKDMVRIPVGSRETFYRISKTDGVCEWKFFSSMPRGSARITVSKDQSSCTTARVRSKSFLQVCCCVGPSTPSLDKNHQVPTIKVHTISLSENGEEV
Procedure: as §1, §2, §3

SMILES | Ki (human α1B-adrenoceptors; human recombinant receptors in CHO cells, mean ± SEM, read-out: pKi α1B (converted)) [nM] | Ki (human α1D-adrenoceptors; human recombinant receptors in CHO cells, mean ± SEM, read-out: pKi α1D (converted)) [nM] | affinity for 5-HT1A receptors (5-HT1A receptors) | affinity for D-3 receptors (D-3 receptors) | fold greater affinity for α1A-adrenoreceptor subtype than the corresponding (S)-isomer (human α1A-adrenoceptors; human recombinant receptors) [fold] | Ki (human α1A-adrenoceptors; human recombinant receptors in CHO cells, mean ± SEM, read-out: pKi α1A (converted)) [nM] | Ki (human α1B-adrenoceptors) [nM] | Ki (human α1D-adrenoceptors) [nM] | melting point [°C]
CCOc1ccccc1OCCNC(C)Cc1ccc(OC)c(S(N)(=O)=O)c1 (single isomer, unassigned; (-)) [Tamsulosin, (−) isomer of 5-[2-[2-(2-ethoxyphenoxy)ethylamino]-2-methylethyl]-2-methoxybenzene sulfonamide, reference compound] | 0.692 | 0.0813 | subnanomolar affinity | subnanomolar affinity | – | – | – | – | –
CCOc1ccccc1OCCN[C@H](C)Cc1ccc(O)c(S(N)(=O)=O)c1 [Formula I, R (−)-5-[2-[[2-(2-ethoxyphenoxy)ethyl]amino]propyl]-2-hydroxybenzenesulfonamide] | – | – | – | – | 102 | 0.0219 | 0.324 | 0.107 | 159.5
